Results on 33 compounds are retold here after US20250376461A1, “INDAZOLE DERIVATIVES FOR TREATING TRPM3-MEDIATED DISORDERS” (Katholieke Universiteit Leuven, priority 2022, published 2025).

The target of the assay is T1, mouse TRPM3α2 (mTRPM3) ion channel (Mus musculus, UniProt J9SQF3).
T1 construct: expressed in transfected cells; host or cells: flip-in HEK293
T1 sequence (J9SQF3 1-1709 isoform J9SQF3-12): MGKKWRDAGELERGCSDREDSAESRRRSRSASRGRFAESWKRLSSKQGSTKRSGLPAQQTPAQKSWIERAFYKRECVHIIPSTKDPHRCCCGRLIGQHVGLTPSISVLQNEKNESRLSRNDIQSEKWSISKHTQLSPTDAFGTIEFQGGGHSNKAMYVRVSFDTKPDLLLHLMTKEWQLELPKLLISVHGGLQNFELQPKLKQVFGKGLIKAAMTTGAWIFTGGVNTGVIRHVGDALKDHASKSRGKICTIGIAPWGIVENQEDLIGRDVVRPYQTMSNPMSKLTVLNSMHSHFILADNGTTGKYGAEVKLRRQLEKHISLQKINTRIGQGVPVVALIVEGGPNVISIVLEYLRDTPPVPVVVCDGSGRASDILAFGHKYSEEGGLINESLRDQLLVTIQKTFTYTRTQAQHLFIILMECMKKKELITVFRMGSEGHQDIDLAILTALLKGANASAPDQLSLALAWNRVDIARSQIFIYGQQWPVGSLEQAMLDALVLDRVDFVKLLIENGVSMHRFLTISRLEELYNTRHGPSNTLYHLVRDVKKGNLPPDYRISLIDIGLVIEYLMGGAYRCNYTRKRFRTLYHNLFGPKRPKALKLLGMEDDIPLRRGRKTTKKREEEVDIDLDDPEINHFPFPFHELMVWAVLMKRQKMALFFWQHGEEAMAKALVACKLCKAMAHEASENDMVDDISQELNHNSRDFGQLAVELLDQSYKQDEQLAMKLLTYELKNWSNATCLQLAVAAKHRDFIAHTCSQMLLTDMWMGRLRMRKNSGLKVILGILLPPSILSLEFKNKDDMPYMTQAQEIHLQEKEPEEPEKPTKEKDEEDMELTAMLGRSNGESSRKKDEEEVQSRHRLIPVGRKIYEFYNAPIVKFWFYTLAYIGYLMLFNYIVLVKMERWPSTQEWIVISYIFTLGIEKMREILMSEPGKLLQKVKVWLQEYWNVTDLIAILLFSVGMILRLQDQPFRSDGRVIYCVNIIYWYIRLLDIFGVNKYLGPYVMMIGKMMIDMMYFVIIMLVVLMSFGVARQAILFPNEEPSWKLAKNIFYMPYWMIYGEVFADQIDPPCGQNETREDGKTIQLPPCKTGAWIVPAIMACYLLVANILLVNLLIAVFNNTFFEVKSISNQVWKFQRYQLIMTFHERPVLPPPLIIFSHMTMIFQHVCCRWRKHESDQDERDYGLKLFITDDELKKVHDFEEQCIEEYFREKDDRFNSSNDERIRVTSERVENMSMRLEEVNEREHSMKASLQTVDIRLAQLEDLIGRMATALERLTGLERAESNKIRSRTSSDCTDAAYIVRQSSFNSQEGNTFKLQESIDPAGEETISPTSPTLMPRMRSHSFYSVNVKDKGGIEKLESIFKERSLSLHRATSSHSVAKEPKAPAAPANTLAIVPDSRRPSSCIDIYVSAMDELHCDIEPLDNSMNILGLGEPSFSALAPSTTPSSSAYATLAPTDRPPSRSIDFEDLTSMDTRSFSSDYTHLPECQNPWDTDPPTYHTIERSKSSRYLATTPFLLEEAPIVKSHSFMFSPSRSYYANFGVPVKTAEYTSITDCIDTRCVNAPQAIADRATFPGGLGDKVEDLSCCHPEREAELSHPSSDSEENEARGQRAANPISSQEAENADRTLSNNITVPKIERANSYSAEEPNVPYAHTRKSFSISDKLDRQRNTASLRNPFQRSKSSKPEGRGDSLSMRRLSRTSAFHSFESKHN
In words: TRPM3 ion channel driven Ca2+ uptake, Fluo-4 AM assay, mTRPM3alpha2 overexpressing flip-in HEK293 cells stimulated with pregnenolone sulfate (50 μM). The assay is classed as cell-based. Particulars: mTRPM3 overexpressing HEK293 cells stimulated with pregnenolone sulfate (50 μM), activity ranges A, B, C. On the procedure: Monitoring the TRPM3 Ion Channel Driven Ca2+ Uptake.
In order to monitor the inhibition of the mouse TRPM3α2 (mTRPM3) ion channel by the compounds of the invention, a cellular system making use of an mTRPM3alpha2 or hTRPM3 overexpressing cell line (flip-in HEK293) was used. The TRPM3 channel was stimulated/opened with Pregnenolone sulfate (PS) (50 μM) which results in Ca^2+ influx.
For mTRPM3, the intracellular Ca^2+ was measured with a Calcium responsive dye, Fluor-4 AM ester (Invitrogen). Cells were cultured until a confluence of 80-90%, washed with Versene (Invitrogen) and detached from the surface by a short incubation with 0.05% Trypsin (Invitrogen). The trypsination process was stopped by the addition of complete cell culture medium (DMEM, glutamax, 10% FCS, NEAA, Pen-Strep). Cells were collected and resuspended in Krebs buffer without Calcium at RT.
Prior the cell seeding (±2000 cells/well into a black, 384 well plate (Greiner)) the diluted compound was added in the assay plate, together with the PS dissolved in Krebs buffer containing Calcium. […] Directly after cell addition the plates were read on an Envision fluorescence reader (Perkin Elmer) by an Excitation of 485 nm and emission at 535 nm.
Channel inhibition was calculated compared to a non-PS stimulated control versus a condition stimulated with PS (50 μM) with vehicle. The ability of the compounds of the invention to inhibit this activity was determined as: Percentage inhibition=[1−((RFU determined for sample with test compound present−RFU determined for sample with positive control inhibitor) divided by (RFU determined in the presence of vehicle−RFU determined for sample with positive control inhibitor))]*100.
The activities of the Example compounds cpd 001-262 tested are depicted in the table below. All tested compounds show an activity in the Fluo-4 AM assay. The activity ranges A, B and C refer to IC50 values in the Fluo-4 AM assay as follows: “A”: IC50<1 μM; “B”: 1 μM≤IC50≤20 μM and “C”: IC50>20 μM.
With `Cc1ncsc1COc1ccc2nn(C)c(C(=O)NC3CCN(C)C3)c2c1` (stereo not drawn) [Cpd 075, 2-methyl-5-[(4-methyl-1,3-thiazol-5-yl)methoxy]-N-(1-methylpyrrolidin-3-yl)-2H-indazole-3-carboxamide], the concentration for half-maximal inhibition (IC50) was in the range of 1000 to 20000 nM. Regarding `Cn1nccc1COc1ccc2nn(C)c(C(=O)NCc3cccc(O)n3)c2c1` [Cpd 035, N-[(6-hydroxypyridin-2-yl)methyl]-2-methyl-5-[(1-methyl-1H-pyrazol-5-yl)methoxy]-2H-indazole-3-carboxamide], the IC50 was in the range of 1000 to 20000 nM. The same measure for `Cn1nc2ccc(OCc3cccnc3C(F)(F)F)cc2c1C(=O)NCc1cccc(O)n1` [Cpd 036, N-[(6-hydroxypyridin-2-yl)methyl]-2-methyl-5-{[2-(trifluoromethyl)pyridin-3-yl]methoxy}-2H-indazole-3-carboxamide]: 1000 to 20000 nM; for `Cc1ncc(COc2ccc3nn(C)c(C(=O)N[C@@H](CO)C(N)=O)c3c2)s1` [Cpd 126, (2S)-3-hydroxy-2-({2-methyl-5-[(2-methyl-1,3-thiazol-5-yl)methoxy]-2H-indazol-3-yl}formamido)propanamide]: 1000 to 20000 nM. Take `Cn1nc2ccc(OCC3CC3)cc2c1C(=O)NC(C)(CO)CO` [Cpd 135, 5-(cyclopropylmethoxy)-N-(1,3-dihydroxy-2-methylpropan-2-yl)-2-methyl-2H-indazole-3-carboxamide]: the IC50 is 1000 to 20000 nM. The same measure for `CN1CCC(NC(=O)c2c3cc(OCc4ccccc4F)ccc3nn2C)CC1` [Cpd 093, 5-[(2-fluorophenyl)methoxy]-2-methyl-N-(1-methylpiperidin-4-yl)-2H-indazole-3-carboxamide]: 1000 to 20000 nM; for `Cn1nccc1COc1ccc2nn(C)c(C(=O)NCCN3CCOC3=O)c2c1` [Cpd 055, 2-methyl-5-[(1-methyl-1H-pyrazol-5-yl)methoxy]-N-[2-(2-oxo-1,3-oxazolidin-3-yl)ethyl]-2H-indazole-3-carboxamide]: 1000 to 20000 nM; for `Cn1nc2ccc(OCc3cccnc3C(F)(F)F)cc2c1C(=O)NC1(CO)CCNC1=O` (single isomer, unassigned) [Cpd 177 - En2]: 1000 to 20000 nM.

For the compound `Cn1nc2ccc(OCc3ccccc3)cc2c1C(=O)NCCN1CCOC1=O` [Cpd 045, 5-(benzyloxy)-2-methyl-N-[2-(2-oxo-1,3-oxazolidin-3-yl)ethyl]-2H-indazole-3-carboxamide], the IC50 is > 20000 nM. The same measure for `Cc1ncsc1COc1ccc2nn(C)c(C(=O)NC3(CO)CCNC3=O)c2c1` (single isomer, unassigned) [Cpd 163 - En1, N-[3-(hydroxymethyl)-2-oxopyrrolidin-3-yl]-2-methyl-5-[(4-methyl-1,3-thiazol-5-yl)methoxy]-2H-indazole-3-carboxamide]: < 1000 nM; for `CNC(=O)C1(NC(=O)c2c3cc(OCc4cccnc4C(F)(F)F)ccc3nn2C)CCOC1` (single isomer, unassigned) [Cpd 183 - En2, 2-methyl-N-[3-(methylcarbamoyl)oxolan-3-yl]-5-{[2-(trifluoromethyl)pyridin-3-yl]methoxy}-2H-indazole-3-carboxamide]: 1000 to 20000 nM. The same measure for `Cn1nc2ccc(OCc3ccccc3F)cc2c1C(=O)O` [Cpd 198, 5-[(2-fluorophenyl)methoxy]-2-methyl-2H-indazole-3-carboxylic acid]: 1000 to 20000 nM.

On to `Cc1ncsc1COc1ccc2nn(C)c(C(=O)NC(C)(CO)C(N)=O)c2c1` (single isomer, unassigned) [Cpd 151 - En2], for which the IC50 was in the range of 1000 to 20000 nM.

In the case of `Cn1nc2ccc(OCC(F)F)cc2c1C(=O)NC(C)(CO)C(N)=O` (single isomer, unassigned) [Cpd 187 - En2], the IC50 lay within 1000 to 20000 nM. The same measure for `Cn1nc2ccc(OCC3CC3)cc2c1C(=O)N[C@H](CO)C(N)=O` [Cpd 136, (2R)-2-{[5-(cyclopropylmethoxy)-2-methyl-2H-indazol-3-yl]formamido}-3-hydroxypropanamide]: 1000 to 20000 nM; for `C[C@@H](NC(=O)c1c2cc(OCC3CC3)ccc2nn1C)C(N)=O` [Cpd 121, (2R)-2-{[5-(cyclopropylmethoxy)-2-methyl-2H-indazol-3-yl]formamido}propanamide]: < 1000 nM. The value for `CN1CCC(NC(=O)c2c3cc(OCc4ccnn4C)ccc3nn2C)C1` (stereo not drawn) [Cpd 071, 2-methyl-5-[(1-methyl-1H-pyrazol-5-yl)methoxy]-N-(1-methylpyrrolidin-3-yl)-2H-indazole-3-carboxamide] was 1000 to 20000 nM.

In the case of `Cn1nc2ccc(OCc3ccccn3)cc2c1C(=O)NC1CCNCC1(F)F` (single isomer, unassigned) [Cpd 128 - En2], the IC50 is > 20000 nM.

Turning to `CN(C)C(=O)C(C)(CO)NC(=O)c1c2cc(OCc3cccnc3C(F)(F)F)ccc2nn1C` (single isomer, unassigned) [Cpd 193 - En1, 3-hydroxy-N,N,2-trimethyl-2-[(2-methyl-5-{[2-(trifluoromethyl)pyridin-3-yl]methoxy}-2H-indazol-3-yl)formamido]propanamide], the IC50 was 1000 to 20000 nM. The same measure for `Cn1nc2ccc(OCc3ccccn3)cc2c1C(=O)NCc1ncc[nH]1` [Cpd 206, N-[(1H-imidazol-2-yl)methyl]-2-methyl-5-[(pyridin-2-yl)methoxy]-2H-indazole-3-carboxamide]: 1000 to 20000 nM; for `Cn1nc2ccc(OCc3ccccc3)cc2c1C(=O)NC1(CO)CCOCC1` [Cpd 074, 5-(benzyloxy)-N-[4-(hydroxymethyl)oxan-4-yl]-2-methyl-2H-indazole-3-carboxamide]: 1000 to 20000 nM. The compound `Cc1ncsc1COc1ccc2nn(C)c(C(=O)NC3(C(N)=O)COC3)c2c1` [Cpd 031, N-(3-carbamoyloxetan-3-yl)-2-methyl-5-[(4-methyl-1,3-thiazol-5-yl)methoxy]-2H-indazole-3-carboxamide] yielded an IC50 of 1000 to 20000 nM. The value for `Cn1nc2ccc(OCc3ccccn3)cc2c1C(=O)NC(CO)Cn1ccnc1C(F)(F)F` (stereo not drawn) [Cpd 242, N-{1-hydroxy-3-[2-(trifluoromethyl)-1H-imidazol-1-yl]propan-2-yl}-2-methyl-5-[(pyridin-2-yl)methoxy]-2H-indazole-3-carboxamide] was > 20000 nM; that for `CC1CC(COc2ccc3nn(C)c(C(=O)NC(C)(CO)C(N)=O)c3c2)C1` (stereo not drawn) [Cpd 196, 3-hydroxy-2-methyl-2-({2-methyl-5-[(3-methylcyclobutyl)methoxy]-2H-indazol-3-yl}formamido)propenamide] was 1000 to 20000 nM. The value for `CN1CCC(NC(=O)c2c3cc(OCc4ccccn4)ccc3nn2C)CC1` [Cpd 084, 2-methyl-N-(1-methylpiperidin-4-yl)-5-[(pyridin-2-yl)methoxy]-2H-indazole-3-carboxamide] was 1000 to 20000 nM. The value for `Cc1ncsc1COc1ccc2nn(C)c(C(=O)NC(C)(CO)C(N)=O)c2c1` (single isomer, unassigned) [Cpd 151 - En1] was < 1000 nM. `Cc1ncsc1COc1ccc2nn(C)c(C(=O)NC(C)(C)C(N)=O)c2c1` [Cpd 110, 2-methyl-2-({2-methyl-5-[(4-methyl-1,3-thiazol-5-yl)methoxy]-2H-indazol-3-yl}formamido)propanamide] had an IC50 of 1000 to 20000 nM. The value for `Cn1nc2ccc(OCc3ccccc3F)cc2c1C(=O)NC(C)(CO)C(N)=O` (single isomer, unassigned) [Cpd 194 - En2] was < 1000 nM; that for `Cc1ncc(COc2ccc3nn(C)c(C(=O)NC(C)(CO)C(N)=O)c3c2)s1` (single isomer, unassigned) [Cpd 157 - En2, 3-hydroxy-2-methyl-2-({2-methyl-5-[(2-methyl-1,3-thiazol-5-yl)methoxy]-2H-indazol-3-yl}formamido)propanamide] was < 1000 nM; that for `Cn1nc2ccc(OCc3ccccc3)cc2c1C(=O)NC(CO)C(F)(F)F` (stereo not drawn) [Cpd 091, 5-(benzyloxy)-2-methyl-N-(1,1,1-trifluoro-3-hydroxypropan-2-yl)-2H-indazole-3-carboxamide] was 1000 to 20000 nM. The value for `CCC(CO)(NC(=O)c1c2cc(OCc3ccccn3)ccc2nn1C)C(N)=O` (stereo not drawn) [Cpd 189, 2-(hydroxymethyl)-2-({2-methyl-5-[(pyridin-2-yl)methoxy]-2H-indazol-3-yl}formamido)butanamide] was < 1000 nM; that for `Cn1nc2ccc(OCc3ccccn3)cc2c1C(=O)N[C@H]1CCN(CCO)C1=O` [Cpd 153, N-[(3S)-1-(2-hydroxyethyl)-2-oxopyrrolidin-3-yl]-2-methyl-5-[(pyridin-2-yl)methoxy]-2H-indazole-3-carboxamide] was > 20000 nM. The value for `Cc1ncc(COc2ccc3nn(C)c(C(=O)N[C@H](C(N)=O)[C@@H](C)O)c3c2)o1` [Cpd 142, (2S,3R)-3-hydroxy-2-({2-methyl-5-[(2-methyl-1,3-oxazol-5-yl)methoxy]-2H-indazol-3-yl}formamido)butanamide] was 1000 to 20000 nM.
